Assay results as given in patent publication US20160316790A1, “BETA-HINOKITIOL DERIVATIVES AND APPLICATIONS THEREOF IN PREPARATION OF ANIMAL ANTIBACTERIAL AGENTS AND ANTIBACTERIAL GROWTH PROMOTERS USED IN FEED” (GUANGZHOU INSIGHTER BIOTECHNOLOGY CO., LTD., priority 2013, published 2016).
≈ marks a conversion by molar mass, not a printed value. Where “and” joins values, the source holds several entries; their conditions need not be identical. Equal values may be shown once. Read-outs that look alike come from different tables or passages of the source.

Key:
salmonellas = test: Minimum inhibitory concentration in vitro, doubling dilutions; assay type: cell-based
haemophilus parasuis = test: as above; assay type: cell-based; conditions: Glaesserella parasuis
clostridium perfringens = test: microbe, parasite or virus in culture; assay type: cell-based
escherichia coli = test: Minimum inhibitory concentration in vitro, doubling dilutions; assay type: cell-based
staphylococcus aureus = test: as above; assay type: cell-based
streptococcus = test: as above; assay type: cell-based
[1] = Effect of β-hinokitiol derivatives on diarrhea of weaned pigs; assay type: in vivo
From the text: 80 25-day-old weaned pigs were randomly divided into eight groups according to table 7, 10 pigs in each group. […] During the testing, the pigs ate food and drank water freely with temperature preservation. The test lasted for 10 days.

vibrio = test: Minimum inhibitory concentration in vitro, doubling dilutions; assay type: cell-based
riemerella anatipestifer [2] = test: as above; assay type: cell-based
[3] = Application effect test of β-hinokitiol derivatives in broiler feeds; assay type: in vivo, fast-grown type yellow feather broilers; conditions: 14 days; for Average daily weight gain / Average weight gain / Total consumption / feed conversion efficiency: broilers
From the text: 598 fast-grown type yellow feather broilers (female) aged 30-days were divided into five groups according to table 5. […] During the test, the broilers ate food and drank water freely. The test lasted for 14 days. […] [table]

riemerella anatipestifer [4] = test: Protection effect against attacking and infection of riemerella anatipestifer; conditions: ducks, 5 × 10^7 CFU/bird, 7 days
[5] = test system: major animal pathogenic bacteria; test: In vitro antibacterial activity (MICs), overall statement; assay type: cell-based; conditions: Tables 1 to 4
[6] = strain FS1303B, read-out: Minimum inhibitory concentration (MIC), Salmonellas FS1303B
[7] = strain GD1303-3, read-out: Minimum inhibitory concentration (MIC), Salmonellas GD1303-3
[8] = read-out: Minimum inhibitory concentration (MIC), Haemophilus parasuis 2-3A
[9] = read-out: Minimum inhibitory concentration (MIC), Haemophilus parasuis S5A
[10] = read-out: Minimum inhibitory concentration (MIC), Clostridium JM1210B
[11] = read-out: Minimum inhibitory concentration (MIC), Clostridium JM1212A
[12] = read-out: Minimum inhibitory concentration (MIC), Eserichia coli HZ1308-1
[13] = read-out: Minimum inhibitory concentration (MIC), Eserichia coli SS1107A
[14] = strain KP1307-1, read-out: Minimum inhibitory concentration (MIC), Streptococcus KP1307-1
[15] = strain TS1205-2, read-out: Minimum inhibitory concentration (MIC), Streptococcus TS1205-2
[16] = weaned pigs, 30 ppm in diet, 10 days
[17] = strain 2-3A, read-out: Minimum inhibitory concentration (MIC), Haemophilus parasuis 2-3A
[18] = read-out: Minimum inhibitory concentration (MIC), Vibrio VP3
[19] = read-out: Minimum inhibitory concentration (MIC), Vibrio VP5
[20] = read-out: Minimum inhibitory concentration (MIC), Riemerella anatipestifer WS
[21] = strain SCAU03, read-out: Minimum inhibitory concentration (MIC), Riemerella anatipestifer SCAU03
[22] = read-out: Minimum inhibitory concentration (MIC), Staphylococcus aureus PNB14
[23] = read-out: Minimum inhibitory concentration (MIC), Staphylococcus aureus SA10
[24] = read-out: Minimum inhibitory concentration (MIC), Riemerella anatipestifer SCAU03
[25] = read-out: Minimum inhibitory concentration (MIC), Streptococcus KP1307-1
[26] = strain WS, read-out: Minimum inhibitory concentration (MIC), Riemerella anatipestifer WS

Compound	MIC (salmonellas; [6]) [µg/mL]	MIC (salmonellas; [7]) [µg/mL]	MIC (haemophilus parasuis; [9]) [µg/mL]	MIC (clostridium perfringens; [10]) [µg/mL]	MIC (clostridium perfringens; [11]) [µg/mL]	MIC (escherichia coli; [12]) [µg/mL]	MIC (escherichia coli; [13]) [µg/mL]	MIC (streptococcus; [14]) [µg/mL]	MIC (streptococcus; [15]) [µg/mL]	MIC (haemophilus parasuis; [17]) [µg/mL]	MIC (vibrio; [18]) [µg/mL]	MIC (vibrio; [19]) [µg/mL]	MIC (riemerella anatipestifer [2]; [24]) [µg/mL]	MIC (riemerella anatipestifer [2]; [26]) [µg/mL]	also measured
O=c1cccc(CCCF)cc1O [IST_009_031, 4-(3-fluoropropyl)-2-hydroxycyclohepta-2,4,6-trienone]	50 (≈ 274 µM)	50 (≈ 274 µM)	3.13 (≈ 17.2 µM)	6.25 (≈ 34.3 µM)	6.25 (≈ 34.3 µM)	25 (≈ 137 µM)	100 (≈ 549 µM)								MIC (haemophilus parasuis; [8]): 6.25 µg/mL (≈ 34.3 µM)
CC(C)c1cccc(=O)c(O)c1 [IST_001_002, 2-hydroxy-4-isopropyl-1-cycloheptatrienone, reference compound]	25 (≈ 152 µM)	25 (≈ 152 µM)		6.25 (≈ 38.1 µM)	12.5 (≈ 76.1 µM)	25 (≈ 152 µM)	25 (≈ 152 µM)	50 (≈ 304 µM)	50 (≈ 304 µM)	0.78 (≈ 4.75 µM)	25 (≈ 152 µM)	25 (≈ 152 µM)			MIC (staphylococcus aureus; strain PNB14, read-out: Minimum inhibitory concentration (MIC), Staphylococcus aureus PNB14): 25 µg/mL (≈ 152 µM); MIC (staphylococcus aureus; strain SA10, read-out: Minimum inhibitory concentration (MIC), Staphylococcus aureus SA10): 25 µg/mL (≈ 152 µM); Average daily diarrhea rate [1, 16]: 35% and 32%; MIC (riemerella anatipestifer [2]; [20]): 6.25 µg/mL (≈ 38.1 µM); MIC (riemerella anatipestifer [2]; [21]): 25 µg/mL (≈ 152 µM)
CCCc1cccc(=O)c(O)c1 [IST_009_001, 2-hydroxy-4-propylcyclohepta-2,4,6-trienone]	6.25 (≈ 38.1 µM)	12.5 (≈ 76.1 µM)	0.2 (≈ 1.22 µM)	3.13 (≈ 19.1 µM)	3.13 (≈ 19.1 µM)	12.5 (≈ 76.1 µM)	12.5 (≈ 76.1 µM)	25 (≈ 152 µM)	25 (≈ 152 µM)	0.39 (≈ 2.38 µM)	12.5 (≈ 76.1 µM)	6.25 (≈ 38.1 µM)	12.5 (≈ 76.1 µM)		MIC (staphylococcus aureus; [22]): 12.5 µg/mL (≈ 76.1 µM); MIC (staphylococcus aureus; [23]): 12.5 µg/mL (≈ 76.1 µM); Average daily weight gain ([3]; 5 ppm mixed with feed): 37.75 g/d * bird and 36.93 g/d * bird and 33.52 g/d * bird; Average weight gain ([3]; 5 ppm mixed with feed): 516.79 g and 520.00 g and 547.21 g; Total consumption ([3]; 5 ppm mixed with feed): 61 kg and 58.85 kg and 55.12 kg; feed conversion efficiency ([3]; 5 ppm mixed with feed): 2.886 and 2.846 and 2.808; Average daily weight gain ([3]; 15 ppm mixed with feed): 36.94 g/d * bird and 37.5 g/d * bird and 34.53 g/d * bird; Average weight gain ([3]; 15 ppm mixed with feed): 517.17 g and 525.50 g and 523.38 g; Total consumption ([3]; 15 ppm mixed with feed): 58.03 kg and 57.61 kg and 57.84 kg; feed conversion efficiency ([3]; 15 ppm mixed with feed): 2.807 and 2.741 and 2.889; weight gain and feed conversion efficiency of the experimental broilers (in words) [3]: could enhance the weight gain and the feed conversion efficiency; effect on diarrhea compared with colistin sulfate or IST_001_002 groups (in words) ([1]; 30 ppm test group): obviously better than that of colistin sulfate or IST_001_002 groups; Average daily diarrhea rate [1, 16]: 16% and 17%; diarrhea rate of the tested pigs (in words) ([1]; weaned pigs, added in feeds, 10 days): could obviously reduce the diarrhea rate; Death rate (riemerella anatipestifer [4]; 10 mg/kg weight intramuscular): 0%; Morbidity (riemerella anatipestifer [4]; 10 mg/kg weight intramuscular): 40%; Death rate (riemerella anatipestifer [4]; 20 mg/kg weight intramuscular): 0%; Morbidity (riemerella anatipestifer [4]; 20 mg/kg weight intramuscular): 25%; MIC (riemerella anatipestifer [2]; [20]): 3.13 µg/mL (≈ 19.1 µM); antibacterial activities compared with the lead compound IST_001_002 (in words) [5]: better than those of the lead compound IST_001_002
CCCCCc1cccc(=O)c(O)c1 [IST_009_003, 2-hydroxy-4-pentylcyclohepta-2,4,6-trienone]	6.25 (≈ 32.5 µM)	12.5 (≈ 65 µM)		6.25 (≈ 32.5 µM)	6.25 (≈ 32.5 µM)	6.25 (≈ 32.5 µM)	12.5 (≈ 65 µM)			0.2 (≈ 1.04 µM)	50 (≈ 260 µM)	25 (≈ 130 µM)	12.5 (≈ 65 µM)	3.13 (≈ 16.3 µM)	MIC (streptococcus; [25]): 12.5 µg/mL (≈ 65 µM); MIC (streptococcus; read-out: Minimum inhibitory concentration (MIC), Streptococcus TS1205-2): 12.5 µg/mL (≈ 65 µM); Average daily weight gain ([3]; 40 ppm mixed with feed): 36.21 g/d * bird and 34.19 g/d * bird and 37.14 g/d * bird; Average weight gain ([3]; 40 ppm mixed with feed): 502.05 g and 449.90 g and 534.50 g; Total consumption ([3]; 40 ppm mixed with feed): 58.05 kg and 57.71 kg and 58.17 kg; feed conversion efficiency ([3]; 40 ppm mixed with feed): 2.862 and 2.952 and 2.868; weight gain and feed conversion efficiency of the experimental broilers (in words) [3]: could enhance the weight gain and the feed conversion efficiency; antibacterial activities compared with the lead compound IST_001_002 (in words) [5]: better than those of the lead compound IST_001_002
CO/N=C(\C(=O)N[C@@H]1C(=O)N2C(C(=O)O)=C(COC(C)=O)CS[C@H]12)c1csc(N)n1 [Cefotaxime, reference compound]															Death rate (riemerella anatipestifer [4]; 10 mg/kg weight intramuscular): 0%; Morbidity (riemerella anatipestifer [4]; 10 mg/kg weight intramuscular): 25%
CCc1cccc(=O)c(O)c1 [IST_009_018, 4-ethyl-2-hydroxycyclohepta-2,4,6-trienone]	12.5 (≈ 83.2 µM)	25 (≈ 166 µM)	1.56 (≈ 10.4 µM)	3.13 (≈ 20.8 µM)	3.13 (≈ 20.8 µM)	25 (≈ 166 µM)	50 (≈ 333 µM)		> 100		25 (≈ 166 µM)	25 (≈ 166 µM)	12.5 (≈ 83.2 µM)	6.25 (≈ 41.6 µM)	MIC (streptococcus; [25]): 12.5 µg/mL (≈ 83.2 µM); MIC (haemophilus parasuis; [8]): 3.13 µg/mL (≈ 20.8 µM)
Colistin sulfate [reference compound]															Average daily diarrhea rate ([1]; weaned pigs, 60 ppm in diet, 10 days): 30% and 33%
CCCCCCCCc1cccc(=O)c(O)c1 [IST_009_030, 2-hydroxy-4-octylcyclohepta-2,4,6-trienone]	25 (≈ 107 µM)	> 100	0.39 (≈ 1.66 µM)	25 (≈ 107 µM)	12.5 (≈ 53.3 µM)	25 (≈ 107 µM)	> 100	25 (≈ 107 µM)	25 (≈ 107 µM)	6.25 (≈ 26.7 µM)	> 100	> 100	12.5 (≈ 53.3 µM)	3.13 (≈ 13.4 µM)	MIC (staphylococcus aureus; [22]): 12.5 µg/mL (≈ 53.3 µM); MIC (staphylococcus aureus; [23]): 12.5 µg/mL (≈ 53.3 µM)
O=c1cccc(Cc2ccccc2)cc1O [IST_009_004, 4-benzyl-2-hydroxycyclohepta-2,4,6-trienone]	25 (≈ 118 µM)	25 (≈ 118 µM)	0.2 (≈ 0.942 µM)	12.5 (≈ 58.9 µM)	12.5 (≈ 58.9 µM)	12.5 (≈ 58.9 µM)	25 (≈ 118 µM)	6.25 (≈ 29.4 µM)	50 (≈ 236 µM)	0.78 (≈ 3.67 µM)	50 (≈ 236 µM)	50 (≈ 236 µM)	12.5 (≈ 58.9 µM)	6.25 (≈ 29.4 µM)	
O=c1cccc(Cc2ccc(Cl)cc2)cc1O [IST_009_025, 4-(4-chlorobenzyl)-2-hydroxycyclohepta-2,4,6-trienone]								25 (≈ 101 µM)	25 (≈ 101 µM)		> 100	> 100			
CCCCc1cccc(=O)c(O)c1 [IST_009_019, 4-butyl-2-hydroxycyclohepta-2,4,6-trienone]	25 (≈ 140 µM)	25 (≈ 140 µM)	0.2 (≈ 1.12 µM)	12.5 (≈ 70.1 µM)	6.25 (≈ 35.1 µM)	25 (≈ 140 µM)	25 (≈ 140 µM)	> 100	25 (≈ 140 µM)	0.39 (≈ 2.19 µM)	50 (≈ 281 µM)	50 (≈ 281 µM)			
CCC(C)c1cccc(=O)c(O)c1 (stereo not shown) [IST_009_008, 4-(sec-butyl)-2-hydroxycyclohepta-2,4,6-trienone]	25 (≈ 140 µM)	25 (≈ 140 µM)		12.5 (≈ 70.1 µM)	12.5 (≈ 70.1 µM)	25 (≈ 140 µM)	25 (≈ 140 µM)	50 (≈ 281 µM)	50 (≈ 281 µM)	0.39 (≈ 2.19 µM)	50 (≈ 281 µM)	25 (≈ 140 µM)	12.5 (≈ 70.1 µM)	6.25 (≈ 35.1 µM)	
CCCCCCCCCCCCCCc1cccc(=O)c(O)c1 [IST_009_033, 2-hydroxy-4-tetradecylcyclohepta-2,4,6-trienone]	> 100	> 100		50 (≈ 157 µM)	50 (≈ 157 µM)	> 100	> 100	> 100	> 100	50 (≈ 157 µM)	> 100	> 100		25 (≈ 78.5 µM)	MIC (riemerella anatipestifer [2]; [21]): 100 µg/mL (≈ 314 µM)
O=c1cccc(Cc2ccc(F)cc2)cc1O [IST_009_028, 4-(4-fluorobenzyl)-2-hydroxycyclohepta-2,4,6-trienone]								25 (≈ 109 µM)	25 (≈ 109 µM)		100 (≈ 434 µM)	100 (≈ 434 µM)			
